In brackets after ≈: the same amount, converted by molar mass.
How the values were obtained:
H9 [1] = assay: Concentration which inhibited HIV-1 replication by 50% in acutely infected H9 cells; format: functional, cell-based; conditions: Homo sapiens
H9 [2] = assay: Compound was tested for cytotoxic activity against acutely infected H9 cell growth.; format: functional, cell-based; conditions: Homo sapiens

Row | Compound | EC50 (H9 [1]) | IC50 (H9 [2])
1 | COc1ccc(C[C@@H]2COC(=O)[C@H]2Cc2ccc(O)cc2)cc1OC | 0.25 µg/mL (≈ 0.73 µM) | 0.8 µg/mL (≈ 2.34 µM)
2 | COc1ccc(C[C@@H]2COC(=O)C2)cc1OC | 34 µg/mL (≈ 144 µM) | 100 µg/mL (≈ 423 µM)
3 | COc1ccc(C[C@@H]2COC(=O)[C@H]2Cc2ccccc2)cc1OC | 2.2 µg/mL (≈ 6.74 µM) | 20 µg/mL (≈ 61.3 µM)
4 | COc1ccc(C[C@@H]2COC(=O)[C@H]2Cc2ccc(O)c(O)c2)cc1OC | 1.5 µg/mL (≈ 4.19 µM) | 6 µg/mL (≈ 16.7 µM)
5 | COc1cc(C[C@@H]2C(=O)OC[C@H]2Cc2ccc(OC)c(OC)c2)ccc1O | 0.16 µg/mL (≈ 0.43 µM) | 0.8 µg/mL (≈ 2.15 µM)
6 | COc1ccc(C[C@@H]2COC(=O)[C@H]2Cc2cccc(O)c2)cc1OC | 1.8 µg/mL (≈ 5.26 µM) | 4 µg/mL (≈ 11.7 µM)
